Experimental data: patent US20250003900A1, “Micro Magnetic Resonance Relaxometry (MMRR) for Rapid and Non-Invasive Detection of Senescence in Mesenchymal Stem Cells” (Massachusetts Institute of Technology, priority 2021, published 2025)

Tests used:
MSCs [1] = experiment: μMRR T2 measurement of MSCs with induced senescence; format: cell-based
Source text: Cytokines such as Transforming Growth Factor-β1 (TGFβ1) and interleukin-1 (IL-1) induce senescence in MSCs. TGFβ1 is a TGF family member that controls numerous cellular functions, including proliferation and cell death. (Refs. 51 and 52) IL-1 is a proinflammatory cytokine whose expression is associated with SASP. […] The senescent cells are more in TGF-β1 treated cells than IL-1 treated cells (FIG. 8), which is also confirmed here by its decreased T2 values than IL-1 treated cells.
Since MSCs donors show differences in proliferative ability, it is important to find the limit of detection (LOD) of MRR assay in terms of the cell number. […] Here, the LOD was analyzed by decreasing the concentration of cells even lower to 4 ×10^4, 2×10^4, and 1×10^4 cells for uMRR detection as shown in the FIG. 6H and FIG. 8. […] The batches of 1, 2, and 4 (×10^4 cells) in 4 μl detection volume of TGF-β1 treated and untreated MSCs were analyzed by MRR. […]
(§1) Bone marrow-derived mesenchymal stem cells (MSC) were purchased from Lonza Pte. […] The cell number was calculated using a disposable hemocytometer (INCYTO, Korea) with the trypan blue exclusion method. […]
For all MRR experiments, the normalized concentration (3×10^5 cells) of MSCs have used unless otherwise stated. […] Proton transverse relaxation rates T2 were measured by standard Carr-Purcell-Meiboom-Gill (CPMG) pulse programme (Refs. 64 and 65) (FIG. 3B). […]

MSCs [2] = experiment: Immunofluorescence of proliferation marker EdU and senescence marker γ-H2AX foci in MSCs; format: cell-based; conditions: passage 3 MSCs, 1 μM doxorubicin for 24 hours
Method: Proliferation and senescence were measured simultaneously in order to correlate cell state directly with the MRR T2 values. MSCs from the same donor were serially passaged to passage 3, passage 5, and passage 6. As a positive control for senescence cells, cells from passage 3 were also treated with doxorubicin (DOX), a chemotherapy agent that produces DNA damage and reactive oxygen species to induce senescence in tumor cells. To measure DNA synthesis, EdU (5-ethynyl-2′-deoxyuridine) was used as an indicator of active cell proliferation (shown in green). In contrast, senescent cells are known to accumulate γ-H2AX foci (indicated in red). The proliferation (Pf) index and senescence (Sn) index were calculated from these images and plotted respectively (FIG. 6C and FIG. 6D). […]
as §1
For detection of SA-βgal together with another senescence marker (γ-H2AX foci) (Ref. 66) and the proliferation marker, 5-ethynyl-2′-deoxyuridine (Edu) in the cells, the protocol was performed as previously mentioned (Ref. 67). […] Subsequently, Edu labeling was detected following the manufacturer's protocol (Invitrogen). […]

Compound | T2 values of cytokine treated cells (MSCs [1]; MSCs treated with 10 ng and 20 ng/ml cytokine) | senescent cells in TGF-β1 treated cells versus IL-1 treated cells (MSCs [1]; confirmed by decreased T2 values than IL-1 treated cells) | senescence (Sn) index (γ-H2aX) (MSCs [2]; compared to P3 and P5) | proliferation (Pf) index (MSCs [2]; compared with P3, P5 and P6)
TGFβ1: TGF family member cytokine that induces senescence in MSCs | decreased with increasing cytokine concentrations | more | – | –
COc1cccc2c1C(=O)c1c(O)c3c(c(O)c1C2=O)C[C@@](O)(C(=O)CO)C[C@@H]3O[C@H]1C[C@H](N)[C@H](O)[C@H](C)O1 [DOX, doxorubicin] | – | – | more senescent cells | lowest
